According to the supplement of paper PMC7695840:
pIC50: −log10 of the molar value. Values joined by “and” are separate entries in the source; they are usually repeats but may differ in a detail not shown here. Equal entries are not always repeated. Structures can show the parent of a compound that is named as a salt.

Assays:
[1] = system: Staphylococcus aureus MW2 delta-mecA (mecA-); experiment: IC50 (growth, competition assay); settings: cefoxitin: subinhibitory
Method in brief: (§1)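 Two fluorescent S. aureus MW2 strains, one carrying and one lacking the resistance gene, were pre-induced, mixed 1:1 and grown unshaken in LB in 1536-well plates for 20 h at 37 °C and 90% humidity with a subinhibitory drug dose set each day. Compounds were tested on five- or nine-point 2-fold gradients in two dye-swapped replicates. DsRed (540/590) and GFP (485/520) signals were scaled per plate between the medians of single-strain controls, and No Treatment was then set to 0.5. For each strain, IC50 was taken as the dose that halved the No Treatment signal, or else the maximal signal.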

[2] = system: Staphylococcus aureus MW2 (mecA+); experiment: IC50 (growth, competition assay); settings: cefoxitin: subinhibitory
Method in brief: as §1

Compound	pIC50 ([1]; fluorescent label: DsRed)	pIC50 ([1]; fluorescent label: GFP)	pIC50 ([2]; fluorescent label: DsRed)	pIC50 ([2]; fluorescent label: GFP)
CCOC(=O)CCC(=O)O[C@H]1[C@H](O[C@@H]2[C@@H](C)[C@H](O[C@H]3C[C@@](C)(OC)[C@@H](O)[C@H](C)O3)[C@@H](C)C(=O)O[C@H](CC)[C@@](C)(O)[C@H](O)[C@@H](C)C(=O)[C@H](C)C[C@@]2(C)O)O[C@H](C)C[C@@H]1N(C)C [ERYPED]	> 5.01	> 5.01	> 5.01	> 5.01
C/C=C(/C(=C/C)c1ccc(O)cc1)c1ccc(O)cc1 [ESTRAGUARD]	4.73	> 5.01	4.51	4.28
CO[C@H]1C[C@H](O[C@H]2[C@H](C)[C@@H](O[C@@H]3O[C@H](C)C[C@H](N(C)C)[C@H]3OC(C)=O)[C@@H](C)C[C@@]3(CO3)C(=O)[C@H](C)[C@@H](OC(C)=O)[C@@H](C)[C@@H](C)OC(=O)[C@@H]2C)O[C@@H](C)[C@@H]1OC(C)=O [EVRAMYCIN]	> 5.01	> 5.01	4.47	4.56
CO/N=C(\C(=O)N[C@@H]1C(=O)N2C(C(=O)O)=C(CSC(=O)c3ccco3)CS[C@H]12)c1csc(N)n1 [EXCENEL]	> 5.01	> 5.01	> 5.01	> 5.01
O=C1OC(c2ccc(O)cc2)(c2ccc(O)cc2)c2ccccc21 [EXLAX]	4.30	4.23	3.95	4.28
CC(C)(C)c1ccc(C(=O)CCCN2CCC(OC(c3ccccc3)c3ccccc3)CC2)cc1 [Ebastine]	> 5.01	> 5.01	4.78	4.81
CCN1CCN(c2cc3c(cc2F)c(=O)c(C(=O)O)cn3C2CC2)CC1 [Enrofloxacin]	> 5.01	> 5.01	> 5.01	> 5.01
CC[C@H]1OC(=O)[C@H](C)[C@@H](O[C@H]2C[C@@](C)(OC)[C@@H](O)[C@H](C)O2)[C@H](C)[C@@H](O[C@@H]2O[C@H](C)C[C@H](N(C)C)[C@H]2O)[C@](C)(O)C[C@@H](C)C(=O)[C@H](C)[C@@H](O)[C@]1(C)O [Erythromycin (E-Mycin)]	> 6.30	> 6.30	5.85	5.79
CCOC(=O)CCC(=O)O[C@H]1[C@H](O[C@@H]2[C@@H](C)[C@H](O[C@H]3C[C@@](C)(OC)[C@@H](O)[C@H](C)O3)[C@@H](C)C(=O)O[C@H](CC)[C@@](C)(O)[C@H](O)[C@@H](C)C(=O)[C@H](C)C[C@@]2(C)O)O[C@H](C)C[C@@H]1N(C)C [Erythromycin Ethylsuccinate]	> 5.01	> 5.01	> 5.01	> 5.01
COc1cc([C@@H]2c3cc4c(cc3[C@@H](O[C@@H]3O[C@@H]5CO[C@@H](C)O[C@H]5[C@H](O)[C@H]3O)[C@H]3COC(=O)[C@H]23)OCO4)cc(OC)c1O [Etoposide]	> 5.01	> 5.01	4.83	4.83
O=C1[C@H](CC[C@H](O)c2ccc(F)cc2)[C@@H](c2ccc(O)cc2)N1c1ccc(F)cc1 [Ezetimibe (Zetia)]	4.60	4.83	4.10	3.97
CO/N=C1\CN(c2nc3c(cc2F)c(=O)c(C(=O)O)cn3C2CC2)CC1CN (stereo not drawn) [FACTIVE]	> 5.01	> 5.01	> 5.01	> 5.01
Oc1c(Br)cc(Br)c2cccnc12 [FENILOR]	> 5.01	> 5.01	> 5.01	4.87
Cc1cc2nc3c(=O)[nH]c(=O)nc-3n(C[C@H](O)[C@H](O)[C@H](O)CO)c2cc1C [FLAVAXIN]	< 3.82	< 3.82	< 3.82	< 3.82
CC1COc2c(N3CCN(C)CC3)c(F)cc3c(=O)c(C(=O)O)cn1c23 (stereo not drawn) [FLOXIN]	> 5.01	> 5.01	> 5.01	> 5.01
O=c1[nH]c(=O)n([C@H]2C[C@H](O)[C@@H](CO)O2)cc1F [FLOXURIDINE]	> 5.01	> 5.01	> 5.01	> 5.01
Cc1cc(C(C#N)c2ccc(Cl)cc2)c(Cl)cc1NC(=O)c1cc(I)cc(I)c1O (stereo not drawn) [FLUKIVER]	> 5.01	> 5.01	> 5.01	> 5.01
Cc1cc(N)c2ccccc2[n+]1CCCCCCCCCC[n+]1c(C)cc(N)c2ccccc21 [FLUOMIZIN]	> 5.01	> 5.01	4.88	4.91
CC(=O)[C@H]1CC[C@H]2[C@@H]3CC=C4C[C@@H](OC(=O)CCC(=O)O)CC[C@]4(C)[C@H]3CC[C@]12C [FORMULA-405]	4.74	4.75	4.74	4.46
CC(=O)O[C@H]1C[C@@]2(C)[C@@H](C[C@@H](O)[C@H]3[C@@]4(C)CC[C@@H](O)[C@@H](C)[C@@H]4CC[C@@]32C)/C1=C(\CCC=C(C)C)C(=O)O [FUCIDINE]	> 5.01	> 5.01	> 5.01	> 5.01
O=C1OC(CN2CCOCC2)CN1/N=C/c1ccc([N+](=O)[O-])o1 (stereo not drawn) [FURALTADONE]	4.94	4.73	4.75	4.82
O=C1OCCN1/N=C/c1ccc([N+](=O)[O-])o1 [FUROXONE]	> 5.01	> 5.01	> 5.01	> 5.01
C[C@H]1O[C@@H](n2cc(F)c(=O)[nH]c2=O)[C@H](O)[C@@H]1O [FURTULON]	> 5.01	> 5.01	4.99	> 5.01
CCOC(=O)C1=C(C)NC(C)=C(C(=O)OC)C1c1cccc(Cl)c1Cl (stereo not drawn) [Felodipine (Plendil)]	5.15	5.16	4.65	4.50
CCOC(=O)C1=C(C)NC(C)=C(C(=O)OC)C1c1cccc(Cl)c1Cl (stereo not drawn) [Felodipine]	> 5.01	> 5.01	4.56	4.49
COc1cccc2c1[C@@H]1CN(CCCCn3c(=O)[nH]c4c(sc5ncc(-c6ccccc6)nc54)c3=O)C[C@@H]1CO2 [Fiduxosin hydrochloride]	4.98	4.90	4.54	4.53
CCCCCCCCc1ccc(CCC(N)(CO)CO)cc1 [Fingolimod (FTY720)]	4.93 and > 5.01	4.97 and > 5.01	4.82 and 4.83	4.73 and 4.83
